# Data from patent publication US7727999B2, “Spiroazacyclic compounds as monoamine receptor modulators” (ACADIA Pharmaceuticals Inc., priority 2001, dated 2010).
# Where a name gives a salt, the structure may show the parent alone.
# Key:
# [1] = system: MK-801-induced hyperactivity in mice; experiment: Attenuation of MK-801 (dizocilpine)-induced hyperactivity in mice; assay type: in vivo; conditions: for MED (mg/kg) p.o.: mice treated with MK801, oral administration; for dose giving statistically significant decrease of MK-801-induced hyperactivity compared to vehicle control: 0.3 mg/kg dizocilpine i.p.
# Procedure: Male Non-Swiss Albino mice (Harlan Sprague-Dawley) were housed (4 mice/cage) in rooms with temperature and humidity controlled and water and food (Harlan Teklad) freely available. Mice were kept on a 12-hr light:dark cycle. For locomotor experiments, plastic 20×20×30 cm activity cages were equipped with photocell beams (AccuScan Instruments).
# (§1) For hyperactivity experiments, mice were treated with 0.3 mg/kg dizocilpine i.p. 15 min before the session. Mice were treated with 69NLS75 s.c. 10 min before the session or p.o. 30 min before the session and placed into the activity cages. For spontaneous activity, 69NLS75 was administered alone. Locomotor data were collected during a 15 min session without habituation in a lit room. Each dose combination was tested in a separate group of animals (n=8). Distance traveled (cm) was calculated and averaged followed by ANOVA and post-hoc Dunnett's t-test comparisons.
# The effect of various compounds on locomotor activity in mice treated with MK801 was observed as described above.
# Animals received 0.1-30 mg/kg of the compound indicated via subcutaneous injection or oral administration. MED indicates the minimum effective dose at which a statistically significant reduction of locomotor activity (described above) was observed. MED=minimum effective dose in vivo.
# [2] = target: T1, 5-HT2A receptor (Homo sapiens, UniProt P28223); experiment: R-SAT functional receptor assay at the 5-HT2A receptor; assay type: cell-based; conditions: for IC50: R-SAT, NIH3T3 cells, inverse agonism (repression of basal response), read-out: 5HT2A pIC50 (converted)
# T1 construct: expressed in transfected cells; host or cells: NIH3T3 cells, pSI mammalian expression vector
# From the text: The EC50 for an agonist is intended to denote the concentration of a compound needed to achieve 50% of a maximal response seen in R-SAT. For inverse agonists, EC50 is intended to denote the concentration of a compound needed to achieve 50% inhibition of an R-SAT response from basal, no compound, levels.
# (§2) The functional receptor assay, Receptor Selection and Amplification Technology (R-SAT), was used (with minor modifications from that previously described U.S. Pat. No. 5,707,798) to screen compounds for efficacy at the 5-HT2A receptor. Briefly, NIH3T3 cells were grown in 96 well tissue culture plates to 70-80% confluence. Cells were transfected for 12-16 hours with plasmid DNAs using superfect (Qiagen Inc.) as per manufacture's protocols. R-SAT's were generally performed with 50 ng/well of receptor and 20 ng/well of Beta-galactosidase plasmid DNA-All receptor and G-protein constructs used were in the pSI mammalian expression vector (Promega Inc) as described in U.S. Pat. No. 5,707,798. The 5HT2A receptor gene was amplified by nested PCR from brain cDNA using the oligodeoxynucleotides based on the published sequence (see Saltzman et. al. Biochem. Biophys. Res. Comm. 181:1469-78 (1991)). Large-scale transfections, cells were transfected for 12-16 hours, then trypsinized and frozen in DMSO. Frozen cells were later thawed, plated at 10,000-40,000 cells per well of a 96 well plate that contained drug. With both methods, cells were then grown in a humidified atmosphere with 5% ambient CO2 for five days. Media was then removed from the plates and marker gene activity was measured by the addition of the beta-galactosidase substrate ONPG (in PBS with 5% NP-40). The resulting […] reaction was measured in a spectrophotometric plate reader (Titertek Inc.) at […]. All data were analyzed using the computer program XLFit (IDBSm). Efficacy is the percent maximal repression compared to repression by a control compound (ritanserin in the case of 5HT2A). pIC50 is the negative of the log(IC50), where IC50 is the calculated concentration in Molar that produces 50% maximal repression.
# The R-SAT assay (described above in example) was used to investigate the selectivity of 4-(4-Fluoro-benzyl)-3-(4-isobutoxy-benzyl)-8-methyl-1-oxa-3,8-diaza-spiro[4.5]decan-2-one.
# [3] = target: T2, 5HT 2C (Homo sapiens, UniProt P28335); experiment: R-SAT selectivity profiling, 5HT 2C; assay type: cell-based
# T2 construct: expressed in transfected cells; host or cells: NIH3T3 cells, pSI vector
# T2 sequence (P28335 33-458): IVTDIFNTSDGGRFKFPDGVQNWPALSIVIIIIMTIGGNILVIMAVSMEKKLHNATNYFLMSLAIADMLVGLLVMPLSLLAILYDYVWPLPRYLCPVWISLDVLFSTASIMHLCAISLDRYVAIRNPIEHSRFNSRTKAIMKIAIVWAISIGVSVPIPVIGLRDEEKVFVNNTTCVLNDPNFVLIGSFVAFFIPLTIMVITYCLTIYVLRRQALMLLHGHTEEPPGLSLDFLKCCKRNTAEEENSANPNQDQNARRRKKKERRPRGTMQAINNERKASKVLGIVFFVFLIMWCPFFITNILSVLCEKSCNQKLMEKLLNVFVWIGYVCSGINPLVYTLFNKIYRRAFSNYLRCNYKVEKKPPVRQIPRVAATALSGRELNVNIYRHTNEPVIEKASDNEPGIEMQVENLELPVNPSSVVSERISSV
# Procedure: as §2, with “Frozen cells were later thawed, plated at 10,000-40,000 cells per well of a 96 well plate that contained drug. With both methods, cells were then grown in a humidified atmosphere with 5% ambient CO2 for five days.” left out, “Efficacy is the percent maximal repression compared to repression by a control compound (ritanserin in the case of 5HT2A). pIC50 is the negative of the log(IC50), where IC50 is the calculated concentration in Molar that produces 50% maximal repression.” left out
# [4] = target: T3, H1 (Homo sapiens, UniProt P35367); experiment: R-SAT selectivity profiling, H1; assay type: cell-based; conditions: H1, antagonist assay; read-out: pEC50 or pIC50 (converted)
# T3 construct: expressed in transfected cells; host or cells: NIH3T3 cells, pSI vector
# Procedure: as §2, with “Frozen cells were later thawed, plated at 10,000-40,000 cells per well of a 96 well plate that contained drug. With both methods, cells were then grown in a humidified atmosphere with 5% ambient CO2 for five days.” left out, “Efficacy is the percent maximal repression compared to repression by a control compound (ritanserin in the case of 5HT2A). pIC50 is the negative of the log(IC50), where IC50 is the calculated concentration in Molar that produces 50% maximal repression.” left out
# [5] = target: T4, m3 (Homo sapiens, UniProt P20309); experiment: R-SAT selectivity profiling, m3; assay type: cell-based; conditions: m3, antagonist assay; read-out: pEC50 or pIC50 (converted)
# T4 construct: expressed in transfected cells; host or cells: NIH3T3 cells, pSI vector
# Procedure: as §2, with “Frozen cells were later thawed, plated at 10,000-40,000 cells per well of a 96 well plate that contained drug. With both methods, cells were then grown in a humidified atmosphere with 5% ambient CO2 for five days.” left out, “Efficacy is the percent maximal repression compared to repression by a control compound (ritanserin in the case of 5HT2A). pIC50 is the negative of the log(IC50), where IC50 is the calculated concentration in Molar that produces 50% maximal repression.” left out
# [6] = target: T5, alpha 2A (Homo sapiens, UniProt P08913); experiment: R-SAT selectivity profiling, alpha 2A; assay type: cell-based; conditions: antagonist assay, read-out: pEC50 or pIC50 (converted)
# T5 construct: expressed in transfected cells; host or cells: NIH3T3 cells, pSI vector
# T5 sequence (P08913 1-465): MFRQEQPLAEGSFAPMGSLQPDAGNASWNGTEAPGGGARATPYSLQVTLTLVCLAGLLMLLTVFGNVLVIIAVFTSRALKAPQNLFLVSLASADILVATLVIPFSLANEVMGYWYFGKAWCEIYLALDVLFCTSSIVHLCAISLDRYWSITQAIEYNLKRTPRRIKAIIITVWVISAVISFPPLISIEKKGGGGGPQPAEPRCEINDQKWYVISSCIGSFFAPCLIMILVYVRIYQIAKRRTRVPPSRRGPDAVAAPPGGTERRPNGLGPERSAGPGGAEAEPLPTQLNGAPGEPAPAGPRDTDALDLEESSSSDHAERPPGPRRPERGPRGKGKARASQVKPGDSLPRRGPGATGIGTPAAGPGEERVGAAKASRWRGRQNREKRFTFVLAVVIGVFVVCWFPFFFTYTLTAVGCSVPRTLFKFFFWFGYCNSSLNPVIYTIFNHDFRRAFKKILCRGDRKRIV
# Procedure: as §2, with “Frozen cells were later thawed, plated at 10,000-40,000 cells per well of a 96 well plate that contained drug. With both methods, cells were then grown in a humidified atmosphere with 5% ambient CO2 for five days.” left out, “Efficacy is the percent maximal repression compared to repression by a control compound (ritanserin in the case of 5HT2A). pIC50 is the negative of the log(IC50), where IC50 is the calculated concentration in Molar that produces 50% maximal repression.” left out
# [7] = target: T6, 5HT1A (Homo sapiens, UniProt P08908); experiment: R-SAT selectivity profiling, 5HT1A; assay type: cell-based; conditions: antagonist assay, read-out: pEC50 or pIC50 (converted)
# T6 construct: expressed in transfected cells; host or cells: NIH3T3 cells, pSI vector
# T6 sequence (P08908 1-422): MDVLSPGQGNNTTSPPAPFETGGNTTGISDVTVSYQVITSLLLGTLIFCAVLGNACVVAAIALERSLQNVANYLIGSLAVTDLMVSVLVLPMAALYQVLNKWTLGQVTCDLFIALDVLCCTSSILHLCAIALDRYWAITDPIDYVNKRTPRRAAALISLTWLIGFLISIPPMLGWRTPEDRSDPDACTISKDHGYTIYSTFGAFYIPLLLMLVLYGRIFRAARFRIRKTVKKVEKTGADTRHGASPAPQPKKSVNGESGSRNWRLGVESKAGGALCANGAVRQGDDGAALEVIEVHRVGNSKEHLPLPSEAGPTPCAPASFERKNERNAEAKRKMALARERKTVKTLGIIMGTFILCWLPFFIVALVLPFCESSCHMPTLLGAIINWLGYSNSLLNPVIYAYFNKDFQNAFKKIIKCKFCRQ
# Procedure: as §2, with “Frozen cells were later thawed, plated at 10,000-40,000 cells per well of a 96 well plate that contained drug. With both methods, cells were then grown in a humidified atmosphere with 5% ambient CO2 for five days.” left out, “Efficacy is the percent maximal repression compared to repression by a control compound (ritanserin in the case of 5HT2A). pIC50 is the negative of the log(IC50), where IC50 is the calculated concentration in Molar that produces 50% maximal repression.” left out
# [8] = system: spontaneous locomotor activity; experiment: Spontaneous locomotor activity in mice; assay type: in vivo; conditions: at doses that attenuate MK-801 hyperactivity; compound administered alone
# Procedure: as §1, with “Male Non-Swiss Albino mice (Harlan Sprague-Dawley) were housed (4 mice/cage) in rooms with temperature and humidity controlled and water and food (Harlan Teklad) freely available. Mice were kept on a 12-hr light:dark cycle. For locomotor experiments, plastic 20×20×30 cm activity cages were equipped with photocell beams (AccuScan Instruments). For hyperactivity” for “For hyperactivity”
# [9] = minimum effective dose for statistically significant reduction of locomotor activity
# [10] = efficacy: percent maximal repression compared to ritanserin
# T1 sequence (P28223 whole entry): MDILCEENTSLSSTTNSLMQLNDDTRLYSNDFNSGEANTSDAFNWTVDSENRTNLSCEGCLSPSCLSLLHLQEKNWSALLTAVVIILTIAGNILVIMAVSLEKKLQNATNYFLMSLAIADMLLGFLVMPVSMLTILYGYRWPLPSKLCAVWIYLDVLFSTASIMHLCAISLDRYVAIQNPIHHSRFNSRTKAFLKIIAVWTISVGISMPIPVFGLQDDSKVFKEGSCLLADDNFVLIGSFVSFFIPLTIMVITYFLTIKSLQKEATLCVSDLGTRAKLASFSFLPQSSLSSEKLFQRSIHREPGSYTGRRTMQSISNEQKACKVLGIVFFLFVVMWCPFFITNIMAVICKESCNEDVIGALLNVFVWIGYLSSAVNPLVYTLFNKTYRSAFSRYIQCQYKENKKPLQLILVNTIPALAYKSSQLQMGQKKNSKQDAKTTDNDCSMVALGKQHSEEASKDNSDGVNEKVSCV
# T4 sequence (P20309 whole entry): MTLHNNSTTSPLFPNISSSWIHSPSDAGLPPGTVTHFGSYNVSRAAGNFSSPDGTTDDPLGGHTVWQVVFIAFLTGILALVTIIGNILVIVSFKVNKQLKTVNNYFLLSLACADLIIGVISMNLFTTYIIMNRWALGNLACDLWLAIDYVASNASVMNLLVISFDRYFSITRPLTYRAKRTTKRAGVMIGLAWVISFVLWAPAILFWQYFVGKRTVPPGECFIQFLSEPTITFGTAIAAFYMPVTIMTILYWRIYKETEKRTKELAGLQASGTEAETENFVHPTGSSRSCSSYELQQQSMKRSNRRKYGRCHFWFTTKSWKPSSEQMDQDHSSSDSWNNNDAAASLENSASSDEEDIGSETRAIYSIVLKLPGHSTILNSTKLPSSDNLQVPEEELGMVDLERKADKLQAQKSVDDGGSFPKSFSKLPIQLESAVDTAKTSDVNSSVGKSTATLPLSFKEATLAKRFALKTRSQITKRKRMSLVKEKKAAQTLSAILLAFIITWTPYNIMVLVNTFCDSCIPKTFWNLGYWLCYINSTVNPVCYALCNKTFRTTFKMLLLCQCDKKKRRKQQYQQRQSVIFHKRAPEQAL
# T3 sequence (P35367 whole entry): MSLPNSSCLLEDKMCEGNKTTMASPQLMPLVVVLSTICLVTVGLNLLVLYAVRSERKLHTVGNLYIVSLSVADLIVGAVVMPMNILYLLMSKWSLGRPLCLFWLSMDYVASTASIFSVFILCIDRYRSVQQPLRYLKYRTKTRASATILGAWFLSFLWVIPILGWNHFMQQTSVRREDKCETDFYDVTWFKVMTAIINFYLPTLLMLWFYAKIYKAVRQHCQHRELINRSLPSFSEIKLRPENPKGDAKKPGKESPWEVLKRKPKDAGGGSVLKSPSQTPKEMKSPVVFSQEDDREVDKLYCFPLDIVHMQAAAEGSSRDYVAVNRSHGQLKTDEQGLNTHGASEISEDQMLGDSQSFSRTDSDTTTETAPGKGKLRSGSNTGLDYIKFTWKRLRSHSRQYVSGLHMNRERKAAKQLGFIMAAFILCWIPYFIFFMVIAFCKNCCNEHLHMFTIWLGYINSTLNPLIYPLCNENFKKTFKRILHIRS
smiles,measurement,setting,value
"CC(C)COc1ccc(CN2C(=O)OC3(CCN(C)CC3)C2Cc2ccc(F)cc2)cc1.Cl (racemic) [Compound 69NLS75, 4-(4-Fluorobenzyl)-3-(4-isobutoxybenzyl)-8-methyl-1-oxa-3,8-diaza-spiro[4.5]decan-2-one, hydrochloride]",effect on MK-801-induced hyperactivity in mice,"[1]; distance traveled, 15 min session",dose-related decrease
same,MED (mg/kg) p.o.,[1]; [9],3 mg/kg
same,MED (mg/kg) s.c.,"[1]; minimum effective dose for statistically significant reduction of locomotor activity, mice treated with MK801, subcutaneous injection",3 mg/kg
same,dose giving statistically significant decrease of MK-801-induced hyperactivity compared to vehicle control,[1]; p.o. 30 min before session,3 mg/kg
same,dose giving statistically significant decrease of MK-801-induced hyperactivity compared to vehicle control,[1]; s.c. 10 min before session,3 mg/kg
same,efficacy in brackets (%),"[2]; 5HT2A, inverse agonist assay",94%
same,pEC50 or pIC50,"[2]; 5HT2A, inverse agonist assay",9.5
same,IC50,[2],0.316 nM
same,Emax,"[2]; efficacy: percent maximal repression compared to ritanserin, read-out: 5HT2A % inhibition",94%
same,efficacy in brackets (%),[3],77%
same,IC50,"[3]; 5HT 2C, inverse agonist assay, read-out: pEC50 or pIC50 (converted)",31.6 nM
same,IC50,[4],200 nM
same,IC50,[5],398 nM
same,IC50,[6],501 nM
same,IC50,[7],398 nM
same,effect on spontaneous locomotor activity,[8],no effect
"CC(C)COc1ccc(CN2C(=O)OC3(CCN(C)CC3)[C@@H]2Cc2ccc(F)cc2)cc1 (single isomer, unassigned) [Compound 78NLS59, hydrochloride]",enantiomer preference at the 5-HT2A receptor in vitro,"[2]; (S)- versus (R)-enantiomer, Table 1",eutomer
same,IC50,[2],0.251 nM
same,5HT2A % inhibition,[2]; [10],98%
"CC(C)COc1ccc(CN2C(=O)OC3(CCN(C)CC3)[C@H]2Cc2ccc(F)cc2)cc1.Cl (single isomer, unassigned) [Compound 78NLS62, hydrochloride]",IC50,[2],6.31 nM
"CC(C)COc1ccc(CN2C(=O)OC3(CCN(C)CC3)[C@H]2Cc2ccc(F)cc2)cc1.Cl (single isomer, unassigned) [Compound 78NLS62]",5HT2A % inhibition,[2]; [10],89%
"CN1CCC2(CC1)OC(=O)N(Cc1ccc(OCC3CC3)cc1)C2Cc1ccc(F)cc1.Cl (centres unmarked) [Compound 69NLS52, 3-(4-Cyclopropylmethoxybenzyl)-4-(4-fluorobenzyl)-8-methyl-1-oxa-3,8-diaza-spiro[4.5]decan-2-one, hydrochloride]",MED (mg/kg) p.o.,[1]; [9],10 mg/kg
"CC(C)COc1ccc(CN2C(=O)OC3(CCN(CCC4OCCO4)CC3)C2Cc2ccc(F)cc2)cc1.Cl (centres unmarked) [Compound 69NLS79-II, 8-(2-[1,3]Dioxolan-2-yl-ethyl)-4-(4-fluorobenzyl)-3-(4-isobutoxybenzyl)-1-oxa-3,8-diaza-spiro[4.5]decan-2-one, hydrochloride]",MED (mg/kg) p.o.,[1]; [9],3 mg/kg
